# Target: T1, HosA (TAP-tagged HosA) (Aspergillus nidulans, UniProt Q5B6M4)
# T1 construct: gene ANIA_03806; TAP-tagged HosA expressed in A. nidulans hosA deletion strain under xylPp; IgG-Sepharose pull-down under native conditions, eluted by TEV protease (CBP part of tag kept); enriched fraction, endogenous complex partners not examined
# T1 sequence (Q5B6M4 1-482): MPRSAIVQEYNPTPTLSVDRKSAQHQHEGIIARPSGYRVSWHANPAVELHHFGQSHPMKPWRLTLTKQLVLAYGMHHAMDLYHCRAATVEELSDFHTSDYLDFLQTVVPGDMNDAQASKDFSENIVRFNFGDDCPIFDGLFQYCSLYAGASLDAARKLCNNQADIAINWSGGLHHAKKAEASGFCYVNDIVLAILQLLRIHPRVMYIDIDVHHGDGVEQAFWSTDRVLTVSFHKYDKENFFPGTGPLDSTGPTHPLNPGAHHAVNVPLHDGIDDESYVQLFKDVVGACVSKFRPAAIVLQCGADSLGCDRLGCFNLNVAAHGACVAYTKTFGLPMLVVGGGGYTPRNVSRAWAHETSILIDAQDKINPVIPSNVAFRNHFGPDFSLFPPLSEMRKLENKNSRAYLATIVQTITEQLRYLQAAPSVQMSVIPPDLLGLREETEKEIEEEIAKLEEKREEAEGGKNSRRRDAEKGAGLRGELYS
# Assay: fluorometric HDAC assay, labelled acetylated peptide substrate (EMD Millipore kit)
# Type: biochemical
# Conditions: read-out: % inhibition at 100 nM
compound,measurement,value
"CC(/C=C/C(=O)NO)=C\[C@@H](C)C(=O)c1ccc(N(C)C)cc1 [TSA, trichostatin A]",inhibition at 0.1 µM,> 60%
